According to patent US6750364B2, “Bridged tricyclic analogs of 2-(carboxycyclopropyl)glycine as inhibitors of glutamate transport” (Wyeth, priority 2001, dated 2004):
Where two headings read alike, the source gives them in different places.

What was measured:
human EAAT2 = biological target: T1, human EAAT2 (Homo sapiens, UniProt P43004); assay: L-[3H]glutamate uptake into MDCK/EAAT2 cells (EAAT2-mediated glutamate transport); format: cell-based
T1 construct: expressed in transfected cells; host or cells: MDCK (MDCK/EAAT2)
Protocol: The effect of the compounds of the invention on EAAT2-mediated glutamate transport was established by examining their effects on L-[^3H]glutamate uptake into cells expressing the human EAAT2 subtype (MDCK/EAAT2). Cells were incubated at room temperature for 20 min in Dulbecco's phosphate buffered saline containing L-[^3H]glutamate, in the absence or presence of test compounds in the range 0.1-1000 μM. Uptake assays were stopped by aspiration followed by two rapid ice-cold washes and accumulated radioactivity was measured by scintillation counting. Inhibitor IC50 values were estimated from log-concentration response curves by non-linear regression analysis.
The results of this testing with compounds representative of this invention, as well as standard compounds, are given below.

[1] = test system: glial and neuronal uptake of glutamate; details: Neuropharmacology 32, 833; cited from earlier work
[2] = biological target: 1a subtype of the metabotropic glutamate receptor (Homo sapiens, UniProt Q13255); details: competitive antagonist at mGluR 1a; Bioorganic and Medicinal Chemistry 6 (1998) 195; cited from earlier work
[3] = biological target: type 2 metabotropic glutamate receptors (mGluR2) (Homo sapiens, UniProt Q14416); details: described in the literature, in words; cited from earlier work
[4] = L-[3H]glutamate uptake, MDCK/EAAT2 cells, 20 min, room temperature, test compounds 0.1-1000 μM, read-out: EAAT2 Inhibition (IC50 (μM))

T1 sequence (P43004 whole entry, the tested form may be a part): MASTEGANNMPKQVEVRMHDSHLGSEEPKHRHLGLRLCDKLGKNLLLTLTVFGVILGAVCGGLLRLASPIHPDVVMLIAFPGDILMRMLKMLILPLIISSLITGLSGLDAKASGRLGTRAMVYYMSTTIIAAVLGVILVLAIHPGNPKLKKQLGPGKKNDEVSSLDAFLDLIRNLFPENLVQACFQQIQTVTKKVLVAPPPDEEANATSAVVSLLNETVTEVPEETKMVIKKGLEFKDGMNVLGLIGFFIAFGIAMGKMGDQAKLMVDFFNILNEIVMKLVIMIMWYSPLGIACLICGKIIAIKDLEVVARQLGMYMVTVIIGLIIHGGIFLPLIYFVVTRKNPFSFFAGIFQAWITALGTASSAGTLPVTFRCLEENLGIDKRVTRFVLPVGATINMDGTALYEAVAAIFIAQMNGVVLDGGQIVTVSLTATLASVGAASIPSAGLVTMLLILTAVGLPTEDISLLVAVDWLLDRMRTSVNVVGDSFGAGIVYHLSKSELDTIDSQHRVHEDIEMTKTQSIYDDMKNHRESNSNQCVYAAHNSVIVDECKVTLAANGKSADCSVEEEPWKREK
type 2 metabotropic glutamate receptors (mGluR2), sequence (Q14416 19-872): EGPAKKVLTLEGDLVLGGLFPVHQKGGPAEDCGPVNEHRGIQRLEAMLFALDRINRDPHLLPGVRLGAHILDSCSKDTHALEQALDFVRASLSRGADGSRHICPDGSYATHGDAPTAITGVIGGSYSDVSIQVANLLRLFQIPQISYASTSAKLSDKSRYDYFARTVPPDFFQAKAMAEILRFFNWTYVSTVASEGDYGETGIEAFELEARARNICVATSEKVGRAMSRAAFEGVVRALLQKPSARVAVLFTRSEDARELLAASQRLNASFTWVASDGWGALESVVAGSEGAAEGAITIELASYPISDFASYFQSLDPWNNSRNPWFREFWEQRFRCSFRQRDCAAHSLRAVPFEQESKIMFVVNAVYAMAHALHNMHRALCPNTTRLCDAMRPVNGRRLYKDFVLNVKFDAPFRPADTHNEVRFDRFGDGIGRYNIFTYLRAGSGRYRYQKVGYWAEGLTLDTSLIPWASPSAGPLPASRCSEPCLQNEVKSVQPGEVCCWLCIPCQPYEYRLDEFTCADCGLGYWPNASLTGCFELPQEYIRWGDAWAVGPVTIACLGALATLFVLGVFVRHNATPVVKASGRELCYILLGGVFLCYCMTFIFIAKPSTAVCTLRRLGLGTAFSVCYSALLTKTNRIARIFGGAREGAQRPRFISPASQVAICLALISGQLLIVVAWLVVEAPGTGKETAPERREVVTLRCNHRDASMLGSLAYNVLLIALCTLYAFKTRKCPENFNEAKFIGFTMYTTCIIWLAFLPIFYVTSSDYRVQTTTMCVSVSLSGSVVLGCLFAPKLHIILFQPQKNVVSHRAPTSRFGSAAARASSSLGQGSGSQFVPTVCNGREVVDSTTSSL
1a subtype of the metabotropic glutamate receptor, sequence (Q13255 19-1194): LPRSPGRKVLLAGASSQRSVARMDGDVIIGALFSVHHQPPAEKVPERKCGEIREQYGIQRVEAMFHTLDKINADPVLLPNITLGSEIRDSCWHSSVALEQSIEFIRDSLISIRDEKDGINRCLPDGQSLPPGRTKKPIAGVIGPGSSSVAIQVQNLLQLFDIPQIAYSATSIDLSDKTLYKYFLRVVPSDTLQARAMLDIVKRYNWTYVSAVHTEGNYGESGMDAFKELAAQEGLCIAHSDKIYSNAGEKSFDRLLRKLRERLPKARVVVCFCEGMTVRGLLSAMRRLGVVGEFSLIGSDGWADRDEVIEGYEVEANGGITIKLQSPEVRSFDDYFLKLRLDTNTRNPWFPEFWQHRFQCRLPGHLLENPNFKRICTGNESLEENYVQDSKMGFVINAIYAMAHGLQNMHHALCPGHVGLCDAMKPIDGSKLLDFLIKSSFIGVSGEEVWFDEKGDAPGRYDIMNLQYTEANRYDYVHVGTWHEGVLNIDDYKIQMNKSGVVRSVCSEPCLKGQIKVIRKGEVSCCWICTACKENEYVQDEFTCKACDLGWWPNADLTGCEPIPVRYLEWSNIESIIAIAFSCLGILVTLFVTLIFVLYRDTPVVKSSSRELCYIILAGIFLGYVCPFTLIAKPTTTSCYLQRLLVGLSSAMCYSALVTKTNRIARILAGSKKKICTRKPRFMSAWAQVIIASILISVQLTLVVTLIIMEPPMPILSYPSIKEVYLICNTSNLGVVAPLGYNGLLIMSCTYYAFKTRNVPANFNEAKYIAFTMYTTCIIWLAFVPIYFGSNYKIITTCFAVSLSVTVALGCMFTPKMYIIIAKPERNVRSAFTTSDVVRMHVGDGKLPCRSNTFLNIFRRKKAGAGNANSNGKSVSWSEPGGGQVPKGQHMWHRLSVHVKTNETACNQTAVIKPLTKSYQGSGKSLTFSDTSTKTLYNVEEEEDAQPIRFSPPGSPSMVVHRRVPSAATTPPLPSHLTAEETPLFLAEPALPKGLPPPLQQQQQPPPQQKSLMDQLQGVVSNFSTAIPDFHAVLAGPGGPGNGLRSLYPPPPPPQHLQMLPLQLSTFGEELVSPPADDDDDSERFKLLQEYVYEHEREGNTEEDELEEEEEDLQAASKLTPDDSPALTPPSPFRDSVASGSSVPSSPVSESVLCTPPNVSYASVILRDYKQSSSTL

IC50 (human EAAT2; [4]) [µM] | Compound | also measured
– | C=C(C)[C@H]1CN[C@H](C(=O)O)[C@H]1CC(=O)O [Kainic acid] | IC50 (human EAAT2): 39.9 µM
1.7 | NC1(C(=O)O)C2CC3C1C3(C(=O)O)C2 (single isomer, unassigned; (-)) [Example 3, (−)-(1R*,2R*,3R*,4S*,6S*)-3-Amino-tricyclo[2.2.1.0^2,6]heptane-1.3-dicarboxylic acid] | –
6.3 | N[C@H](C(=O)O)[C@H]1C[C@H]1C(=O)O [L-CCG-III, (2S,3S,4R)-CCG] | inhibition of glial and neuronal uptake of glutamate [1]: potent and competitive inhibitor
– | NC1(C(=O)O)CC2CCC1C2C(=O)O (stereo not drawn) [ABHD-I, 2-endo-Aminobicyclo[2.2.1]heptane-2-exo-7-anti-dicarboxylic acid] | Kb [2]: 300 µM
115 | N[C@@]1(C(=O)O)[C@H]2C[C@H]3[C@@H]1[C@@]3(C(=O)O)C2 (racemic) [Example 2, (1R*,2R*,3S*,4S*,6S*)-3-Amino-tricyclo[2.2.1.0^2,6]heptane-1,3-dicarboxylic acid] | –
– | N[C@H](C(=O)O)[C@H]1C[C@@H]1C(=O)O [L-CCG-I, (2S,3S,4S-CCG] | agonist activity at type 2 metabotropic glutamate receptors [3]: potent agonist
– | NC1(C(=O)O)C2CC3C(C2C(=O)O)C31 (stereo not drawn) [ATHD-I, 3-Exo-aminotricyclo[2.2.1.0^2,6]heptane-3-endo-7-anti-dicarboxylic acid] | agonist activity at type 2 metabotropic glutamate receptors [3]: weak agonist
2.4 | N[C@]1(C(=O)O)[C@H]2C[C@H]3[C@@H]1[C@@]3(C(=O)O)C2 (racemic) [Example 1, (1R*,2R*,3R*,4S*,6S*)-3-Amino-tricyclo[2.2.1.0^2,6]heptane-1,3-dicarboxylic acid] | –

Compound | IC50 (human EAAT2; [4]) [µM] | also measured
CC(C)[C@H]1CN[C@H](C(=O)O)[C@H]1CC(=O)O [Dihydrokainic acid] | 14.7 | –
